Test: xn = mol fraction of the nth substance listed

CC1CCCCC1 + CCCCCCCCCC
viscosity [mPa·s], 101 kPa
Details | 293.15 K | 298.15 K | 303.15 K | 308.15 K
x1 = 0.0406 | 0.9179 | 0.8528 | 0.7888 | –
x1 = 0.1014 | – | 0.843 | 0.787 | 0.731
x1 = 0.2029 | 0.879 | 0.8207 | 0.76 | –
x1 = 0.2034 | – | 0.824 | 0.77 | 0.716
x1 = 0.2805 | 0.8623 | 0.8054 | 0.747 | –
x1 = 0.3035 | – | 0.806 | 0.753 | 0.7
x1 = 0.3569 | 0.8458 | 0.7898 | 0.7352 | –
x1 = 0.4055 | – | 0.787 | 0.735 | 0.684
x1 = 0.4409 | 0.8287 | 0.7729 | 0.723 | –
x1 = 0.5004 | – | 0.769 | 0.719 | 0.669
x1 = 0.5991 | 0.7985 | 0.7421 | 0.7008 | –
x1 = 0.5998 | – | 0.751 | 0.702 | 0.654
x1 = 0.6756 | 0.7845 | 0.7282 | 0.6906 | –
x1 = 0.7041 | – | 0.731 | 0.684 | 0.637
x1 = 0.7618 | 0.7694 | 0.7135 | 0.6796 | –
x1 = 0.8039 | – | 0.713 | 0.667 | 0.621
x1 = 0.8475 | 0.7548 | 0.7009 | 0.6683 | –
x1 = 0.8993 | – | 0.695 | 0.651 | 0.606
x1 = 0.9148 | 0.7428 | 0.6913 | 0.6592 | –

CCCCCCCCCCCCCCCCCCCCCCCC + CCCCCCCCCC
Details | viscosity [mPa·s]
313.2 K, 101.3 kPa, x2 = 0.8 | 1.48

CCCCCCCCCCCl + CCCCCCCCCC
viscosity [mPa·s], 101 kPa
Details | x2 = 0.1 | x2 = 0.2004 | x2 = 0.2954 | x2 = 0.3988 | x2 = 0.4972 | x2 = 0.593 | x2 = 0.6968 | x2 = 0.7947 | x2 = 0.8906
293.15 K | 1.796 | 1.66 | 1.539 | 1.419 | 1.315 | 1.225 | 1.136 | 1.063 | 0.997
298.15 K | 1.649 | 1.523 | 1.415 | 1.307 | 1.214 | 1.133 | 1.054 | 0.99 | 0.931
303.15 K | 1.5 | 1.388 | 1.291 | 1.196 | 1.114 | 1.042 | 0.973 | 0.917 | 0.867
308.15 K | 1.353 | 1.25 | 1.167 | 1.084 | 1.013 | 0.951 | 0.891 | 0.844 | 0.802

CCCCCCCCCl + CCCCCCCCCC
298 K, 101.3 kPa
Details | viscosity [mPa·s]
x2 = 0.1115 | 1.067
x2 = 0.2067 | 1.026
x2 = 0.3061 | 0.9966
x2 = 0.4041 | 0.969
x2 = 0.505 | 0.9433
x2 = 0.6124 | 0.9242
x2 = 0.707 | 0.8969
x2 = 0.797 | 0.8862
x2 = 0.8983 | 0.874

CCCCCl + CCCCCCCCCC
298 K, 101.3 kPa
Details | viscosity [mPa·s]
x2 = 0.1032 | 0.4681
x2 = 0.202 | 0.5006
x2 = 0.3087 | 0.5437
x2 = 0.3992 | 0.5768
x2 = 0.5065 | 0.6297
x2 = 0.5992 | 0.6636
x2 = 0.6974 | 0.7109
x2 = 0.7967 | 0.7607
x2 = 0.8968 | 0.811

CCOC(=O)c1ccccc1 + CCCCCCCCCC
101 kPa
Details | viscosity [mPa·s]
298.15 K, x2 = 0.0396 | 1.837
298.15 K, x2 = 0.1121 | 1.655
298.15 K, x2 = 0.151 | 1.566
298.15 K, x2 = 0.2285 | 1.42
298.15 K, x2 = 0.2637 | 1.355
298.15 K, x2 = 0.3109 | 1.289
298.15 K, x2 = 0.4026 | 1.176
298.15 K, x2 = 0.4449 | 1.136
298.15 K, x2 = 0.4949 | 1.088
298.15 K, x2 = 0.5326 | 1.056
298.15 K, x2 = 0.5928 | 1.011
298.15 K, x2 = 0.6401 | 0.982
298.15 K, x2 = 0.6988 | 0.947
298.15 K, x2 = 0.812 | 0.894
298.15 K, x2 = 0.8703 | 0.875
298.15 K, x2 = 0.9276 | 0.86
308.15 K, x2 = 0.0574 | 1.521
308.15 K, x2 = 0.0864 | 1.466
308.15 K, x2 = 0.1337 | 1.383
308.15 K, x2 = 0.1677 | 1.329
308.15 K, x2 = 0.1997 | 1.279
308.15 K, x2 = 0.2471 | 1.215
308.15 K, x2 = 0.2846 | 1.165
308.15 K, x2 = 0.3332 | 1.109
308.15 K, x2 = 0.3766 | 1.065
308.15 K, x2 = 0.4181 | 1.024
308.15 K, x2 = 0.4647 | 0.985
308.15 K, x2 = 0.5144 | 0.947
308.15 K, x2 = 0.5655 | 0.913
308.15 K, x2 = 0.6123 | 0.885
308.15 K, x2 = 0.6663 | 0.854
308.15 K, x2 = 0.7228 | 0.828
308.15 K, x2 = 0.7857 | 0.803
308.15 K, x2 = 0.8405 | 0.784
308.15 K, x2 = 0.9073 | 0.764
318.15 K, x2 = 0.0323 | 1.298
318.15 K, x2 = 0.07 | 1.235
318.15 K, x2 = 0.1012 | 1.188
318.15 K, x2 = 0.1446 | 1.128
318.15 K, x2 = 0.1842 | 1.078
318.15 K, x2 = 0.2269 | 1.027
318.15 K, x2 = 0.2679 | 0.984
318.15 K, x2 = 0.3143 | 0.939
318.15 K, x2 = 0.3561 | 0.903
318.15 K, x2 = 0.4045 | 0.866
318.15 K, x2 = 0.4499 | 0.835
318.15 K, x2 = 0.5021 | 0.803
318.15 K, x2 = 0.5496 | 0.777
318.15 K, x2 = 0.6035 | 0.752
318.15 K, x2 = 0.6545 | 0.73
318.15 K, x2 = 0.7126 | 0.708
318.15 K, x2 = 0.7674 | 0.69
318.15 K, x2 = 0.8289 | 0.674
318.15 K, x2 = 0.8862 | 0.661
